The CheMixHub ionic liquid set

Test: xn = mol fraction of the nth substance listed

CC[n+]1ccn(C)c1.[Cl-] + NCCNCCN + OCCO
viscosity [mPa·s], 100 kPa
Details | 293 K | 303 K | 313 K | 323 K | 333 K | 343 K | 353 K
x2 = 0.25, x3 = 0.25 | 64.8 | 43.2 | 29.5 | 20.6 | 14.7 | 10.7 | 8
x2 = 0.333, x3 = 0.333 | 144 | 91.9 | 60.4 | 40.8 | 28.2 | 19.9 | 14.3
x2 = 0.4, x3 = 0.2 | 106 | 68.1 | 44.7 | 30.2 | 20.9 | 14.7 | 10.6
x2 = 0.429, x3 = 0.143 | 103 | 66.5 | 44.2 | 30.1 | 21 | 15 | 10.9
x2 = 0.5, x3 = 0.25 | 124 | 80.8 | 53.9 | 36.9 | 25.8 | 18.5 | 13.4

[Cl-].c1ccc(C[P+](c2ccccc2)(c2ccccc2)c2ccccc2)cc1 + OCC(O)CO
101 kPa, x2 = 0.9412
Details | electrical conductivity [S/m] | viscosity [mPa·s]
298.1 K | 0.006977 | –
307.07 K | – | 654
322.36 K | – | 238
322.96 K | 0.03314 | –
332.98 K | 0.04535 | –
338.06 K | 0.05407 | –
343.13 K | 0.0593 | –
348.08 K | 0.075 | –

CCCC[n+]1ccn(C)c1.[Br-] + O=C1O[C@H]([C@@H](O)CO)C(O)=C1O + O
viscosity [mPa·s], 100 kPa
Details | 293.15 K | 298.15 K | 303.15 K | 308.15 K | 313.15 K | 318.15 K
x2 = 0, x1 = 0.0009002 | 1.033 | 0.918 | 0.823 | 0.753 | 0.676 | 0.618
x2 = 0, x1 = 0.001799 | 1.057 | 0.938 | 0.84 | 0.758 | 0.689 | 0.631
x2 = 0, x1 = 0.002696 | 1.069 | 1 | 0.905 | 0.795 | 0.749 | 0.68
x2 = 0.0003657, x1 = 0.0008999 | 1.04 | 0.925 | 0.831 | 0.761 | 0.684 | 0.626
x2 = 0.0003693, x1 = 0.001798 | 1.064 | 0.945 | 0.847 | 0.765 | 0.696 | 0.638
x2 = 0.000373, x1 = 0.002695 | 1.073 | 1.005 | 0.912 | 0.802 | 0.756 | 0.687
x2 = 0.0007293, x1 = 0.0008995 | 1.048 | 0.933 | 0.839 | 0.769 | 0.691 | 0.633
x2 = 0.0007366, x1 = 0.001797 | 1.071 | 0.952 | 0.854 | 0.772 | 0.703 | 0.645
x2 = 0.0007401, x1 = 0.002694 | 1.08 | 1.013 | 0.919 | 0.808 | 0.763 | 0.695
x2 = 0.001093, x1 = 0.0008992 | 1.055 | 0.94 | 0.845 | 0.775 | 0.697 | 0.639
x2 = 0.0011, x1 = 0.001797 | 1.081 | 0.961 | 0.862 | 0.78 | 0.71 | 0.651
x2 = 0.001111, x1 = 0.002693 | 1.088 | 1.02 | 0.927 | 0.816 | 0.77 | 0.701
x2 = 0.001456, x1 = 0.0008989 | 1.063 | 0.947 | 0.851 | 0.781 | 0.703 | 0.644
x2 = 0.001467, x1 = 0.001796 | 1.09 | 0.969 | 0.869 | 0.786 | 0.716 | 0.657
x2 = 0.001485, x1 = 0.002692 | 1.097 | 1.029 | 0.935 | 0.823 | 0.777 | 0.708
x2 = 0.001819, x1 = 0.0008986 | 1.071 | 0.954 | 0.859 | 0.788 | 0.71 | 0.65
x2 = 0.001833, x1 = 0.001795 | 1.097 | 0.976 | 0.876 | 0.793 | 0.723 | 0.664
x2 = 0.001851, x1 = 0.002691 | 1.106 | 1.038 | 0.941 | 0.83 | 0.785 | 0.715
x2 = 0.002183, x1 = 0.0008982 | 1.079 | 0.961 | 0.865 | 0.795 | 0.717 | 0.657
x2 = 0.002201, x1 = 0.001795 | 1.104 | 0.982 | 0.882 | 0.798 | 0.728 | 0.669
x2 = 0.002221, x1 = 0.00269 | 1.114 | 1.045 | 0.948 | 0.837 | 0.792 | 0.722
